Laboratory results taken from patent US8598120B2 (Amylin Pharmaceuticals, LLC, priority 2004, dated 2013).

Columns and labels:
[1] = Ethanol-induced gastric mucosal injury (gastroprotection); assay type: in vivo, rats; settings: for ED50 for the gastroprotective effect: s.c.
Experimental: Thirty min after gavage, each rat was anesthetized with 5% halothane, the stomach excised, opened along the lesser curvature and everted to expose the mucosa. The everted stomachs were gently rinsed with saline and immediately graded for mucosal damage by each of 10 observers blinded to the experimental treatment.
Stomachs were excised and graded for injury 30 min after ethanol gavage, as described above. The result is provided in the next to the last bar of FIG. 11A.
Stomachs were excised and graded for injury 30 min after ethanol gavage, as described above, and blood was taken for plasma glucose measurement. The injury response was also measured in glucose-treated rats coadministered a 3 mg intravenous bolus of AC187 (n=9).

[2] = Pentagastrin-stimulated gastric acid secretion in gastric fistula rats; assay type: in vivo; settings: for ED50 for the acid-suppressive effect: s.c.
Experimental: The experiments were performed during the light cycle. The rats, fed rat chow (Teklad L M 485, Madison, Wis.), were fasted for approximately 20 hours before experimentation. They were given water ad libitum until the start of the experiment.
The rats (age 9-14 weeks, body mass 264-395 g) were surgically fitted with double gastric fistulae by the supplier (Zivic Miller, Catalog number SCAO3.00). During laparotomy under halothane anesthesia, a grommet-shaped double lumen plug was sutured into the stomach wall. Two silastic 2.3 mm internal diameter (entry and exit) cannulae connected to the plug and communicating with the gastric lumen were tracked through the abdominal wall, subcutaneously to the interscapular region where they were separately exteriorized. The laparotomy wound was closed with clips, the rat was placed in a heated recovery cage for one day with free access to water. Thereafter, the rats were housed singly with free access to water and rat chow until they were subjected to overnight fasting for experiments which were performed on conscious rats, about 10-15 days after surgery.
Gastric catheters were uncapped and attached to flexible PE240 tubing for injection and sampling. To ensure patency of the catheters, 2-3 mL of saline solution at room temperature was injected and immediately withdrawn from the stomach. This was repeated until flow was easy and the effluent was clean. Gastric acid secretion was measured at 10 min intervals by injecting 5 mL saline and 2 mL air via one catheter, then immediately withdrawing the same via the other catheter. In this way errors due to incomplete aspiration of the small, secreted volume could be minimized. Three mL of each gastric aspirate were titrated to pH 7.0 with 0.01 N sodium hydroxide using a pH meter (Beckman model number PHI34 Fullerton, Calif.). The amount of base required for each titration, corrected for the total volume aspirated, was used to calculate the moles of acid in each sample.

[3] = in vivo; cited from earlier work
[4] = Ghrelin assay (plasma total and active ghrelin); assay type: in vivo, rats
Experimental: All experiments were performed in the light cycle. Animals were fasted for approximately 20 hours before experimentation. All animals were given free access to water until the start of the experiment. The animals' tails were anesthetized with 20% benzocaine (Hurricaine, Beutlich Pharmaceutical, Waukegan, Ill.), and blood samples were collected from the tail vein. Total and active ghrelin concentrations were measured using Linco RIA kits GHRA-89HK and GHRA-88HK, respectively.
In study 1, HSD rats were subjected to periodic blood sampling from the topically anesthetized tail and ghrelin levels were assayed. […] The blood samples were analyzed for total and active (acylated) ghrelin (Linco).
Blood plasma samples were collected at least at times 0, 10, 20, 30, 60, and 90 min.

[5] = Food intake assay in overnight fasted mice; assay type: in vivo; settings: 25 nmol/kg intraperitoneal
Experimental: Female NIH/Swiss mice (8-14 weeks old) were group housed with a 12:12 hour light:dark cycle. Water and a standard pelleted mouse chow diet are available ad libitum, except as noted. Animals are fasted starting at approximately 1500 hrs, 1 day prior to experiment.
The effects of treatment on food intake are expressed as % change relative to control.

[6] = 100 μg, one hour after amylin injection

O=C[C@H](O)[C@@H](O)[C@H](O)[C@H](O)CO [D-glucose]
decrease of gastric injury score ([1]; 250 mg intraperitoneal, t=−30 min from gavage): 18.5±4.6%

Amylin: amylin peptide hormone as summarised from the literature (Table 1, background), species not stated (KCNTATCATQRLANFLVHSSNNFGAILSSTNVGSNTY; Islet amyloid polypeptide; UniProt P10997 34-70, looked up)
rate of acid secretion as % of the basal rate that preceded pentagastrin injection [2, 6]: 32% | reduction of pentagastrin-stimulated secretion of acid [2, 6]: 93.4±2.6% | gastric acid production (FIG. 10A) ([2]; injected 40 min after pentagastrin, 0.1-100 μg): dose-dependently inhibited gastric acid production | ED50 for the acid-suppressive effect [2]: 41 pmol/kg | ED50 for the acid-suppressive effect ([2]; ±0.15 log units): 0.05 μg/rat | reduction of injury score ([1]; doses of 0.3 μg and higher): 67% | ED50 for the gastroprotective effect [1]: 31 pmol/kg | protection of the stomach from mucosal injury (FIG. 11C) ([1]; s.c. before ethanol gavage, P<0.05 with doses of 0.1 μg and higher): dose-dependently protected the stomach from mucosal injury | ED50 for the gastroprotective effect ([1]; ±0.40 log units): 0.036 µg | onset of effect in food intake assays [3]: ≤ 30 min | time course of effect in food intake assays [3]: its effect tapers off after 60 minutes

CSNLSTCVLGKLSQELHKLQTYPRTNTGSGTP (listed as Oncorhynchus sp.) [salmon calcitonin]
time course of effect in food intake assays [3]: delayed effect, with peak levels still maintained at 240 minutes

KCNTATCATQRLANFLVRSSNNLGPVLPPTNVGSNTY (listed as Rattus sp.) [rat amylin]
reduction of active ghrelin (FIG. 8A) ([4]; 10 μg s.c. 20 min after pentagastrin […], within 1 hour): ~50% | plasma ghrelin, amylin alone without pentagastrin (FIG. 8B) ([4]; 30 μg/kg s.c., no pentagastrin): plasma ghrelin was reduced compared to the control | total plasma ghrelin compared to saline control (FIGS. 8B, 8C) ([4]; 30 μg/kg s.c., with or without pentagastrin): reduction in total plasma ghrelin

KCNTATCVLGRLTDYLHRLQTYPRTNTGSNTY [Compound 105]
cumulative food intake compared to vehicle, 30 min [5]: −83% | cumulative food intake compared to vehicle, 60 min [5]: −82% | cumulative food intake compared to vehicle, 120 min [5]: −52%

KCNTATCVLGRLANFLHRLQTYPRTNTGSNTY [Compound 14]
cumulative food intake compared to vehicle, 30 min [5]: −52% | cumulative food intake compared to vehicle, 60 min [5]: −36% | cumulative food intake compared to vehicle, 120 min [5]: −28% | cumulative food intake compared to vehicle, 180 min ([5]; 180 min): −33%

KCNTATCVLGRLADFLHRFQTFPRTNTGSNTY [Compound 107]
cumulative food intake compared to vehicle, 30 min [5]: −84% | cumulative food intake compared to vehicle, 60 min [5]: −78% | cumulative food intake compared to vehicle, 120 min [5]: −47%
